Test: xn = mol fraction of the nth substance listed

CC(F)F + FC(F)C(F)(F)F
viscosity [mPa·s], 101 kPa
Settings	x2 = 0.248	x2 = 0.504	x2 = 0.758
298.15 K	0.1447	0.1487	0.1533
313.15 K	0.1172	0.1234	0.13

CCCOC(=O)CCC + CCCCCCCCCC
298.15 K, 101.33 kPa
Settings	viscosity [mPa·s]
x2 = 0.107	0.775
x2 = 0.1388	0.773
x2 = 0.1735	0.771
x2 = 0.2644	0.768
x2 = 0.3659	0.768
x2 = 0.4232	0.769
x2 = 0.5092	0.773
x2 = 0.6715	0.79
x2 = 0.7654	0.804
x2 = 0.8807	0.828
x2 = 0.9329	0.841

O=C(O)CCC(=O)O + CO
viscosity [mPa·s], 101 kPa
Settings	308.15 K	313.15 K	318.15 K	323.15 K
x1 = 0.04258	0.8055	0.7491	0.6981	0.646
x1 = 0.05573	0.9556	0.887	0.8175	0.7603

Cc1ccc(C)cc1 + CCOC(C)=O
Settings	viscosity [mPa·s]
298.15 K, 101 kPa, x2 = 0.044	0.601
298.15 K, 101 kPa, x2 = 0.1503	0.572
298.15 K, 101 kPa, x2 = 0.2506	0.547
298.15 K, 101 kPa, x2 = 0.3502	0.525
298.15 K, 101 kPa, x2 = 0.4374	0.507
298.15 K, 101 kPa, x2 = 0.4986	0.496
298.15 K, 101 kPa, x2 = 0.5505	0.487
298.15 K, 101 kPa, x2 = 0.6473	0.472
298.15 K, 101 kPa, x2 = 0.7519	0.457
298.15 K, 101 kPa, x2 = 0.8485	0.444
298.15 K, 101 kPa, x2 = 0.9426	0.434
303.15 K, 101.32 kPa, x2 = 0.0624	0.555
303.15 K, 101.32 kPa, x2 = 0.1828	0.534
303.15 K, 101.32 kPa, x2 = 0.2938	0.516
303.15 K, 101.32 kPa, x2 = 0.4031	0.498
303.15 K, 101.32 kPa, x2 = 0.5056	0.481
303.15 K, 101.32 kPa, x2 = 0.552	0.474
303.15 K, 101.32 kPa, x2 = 0.6041	0.465
303.15 K, 101.32 kPa, x2 = 0.6976	0.45
303.15 K, 101.32 kPa, x2 = 0.7887	0.436
303.15 K, 101.32 kPa, x2 = 0.8757	0.423
303.15 K, 101.32 kPa, x2 = 0.9585	0.411
308.15 K, 101 kPa, x2 = 0.044	0.527
308.15 K, 101 kPa, x2 = 0.1503	0.506
308.15 K, 101 kPa, x2 = 0.2506	0.488
308.15 K, 101 kPa, x2 = 0.3502	0.471
308.15 K, 101 kPa, x2 = 0.4374	0.457
308.15 K, 101 kPa, x2 = 0.4986	0.448
308.15 K, 101 kPa, x2 = 0.5505	0.44
308.15 K, 101 kPa, x2 = 0.6473	0.427
308.15 K, 101 kPa, x2 = 0.7519	0.414
308.15 K, 101 kPa, x2 = 0.8485	0.403
308.15 K, 101 kPa, x2 = 0.9426	0.393
313.15 K, 101.32 kPa, x2 = 0.2063	0.481
313.15 K, 101.32 kPa, x2 = 0.4077	0.45
313.15 K, 101.32 kPa, x2 = 0.5061	0.435
313.15 K, 101.32 kPa, x2 = 0.5991	0.423
313.15 K, 101.32 kPa, x2 = 0.8016	0.395

O=Cc1ccccc1 + CS(C)=O
viscosity [mPa·s], 101.33 kPa
Settings	x2 = 0.1	x2 = 0.2	x2 = 0.3	x2 = 0.4	x2 = 0.5	x2 = 0.6	x2 = 0.7	x2 = 0.8	x2 = 0.9
298.15 K	1.443	1.51	1.562	1.62	1.679	1.739	1.801	1.864	1.938
308.15 K	1.22	1.266	1.314	1.362	1.411	1.461	1.51	1.56	1.609
318.15 K	1.066	1.101	1.135	1.17	1.207	1.243	1.28	1.317	1.354

[Cl-].[Cl-].[Cl-].[Cl-].[Ge+4] + CCOC(C)=O
viscosity [mPa·s], 101 kPa
Settings	x2 = 0.1475	x2 = 0.3162	x2 = 0.5235	x2 = 0.6703	x2 = 0.8062
293.15 K	0.576	0.535	0.5	0.481	0.469
303.15 K	0.531	0.486	0.457	0.431	0.416
313.15 K	0.481	0.449	0.406	0.39	0.382

OCCOCCO + CS(C)=O
308.15 K, 101 kPa
Settings	viscosity [mPa·s]
x2 = 0.0978	16.69
x2 = 0.1794	15.85
x2 = 0.2569	14.94
x2 = 0.3945	13.49
x2 = 0.4797	12.36
x2 = 0.5804	10.83
x2 = 0.6748	8.995
x2 = 0.7945	6.227
x2 = 0.9146	3.442

O=Cc1ccccc1 + Cc1ccccc1
293.15 K, 100 kPa
Settings	viscosity [mPa·s]
x1 = 0.1053	0.652
x1 = 0.2063	0.721
x1 = 0.2998	0.768
x1 = 0.4022	0.844
x1 = 0.4995	0.92
x1 = 0.6003	1.017
x1 = 0.6939	1.108
x1 = 0.8082	1.256
x1 = 0.9002	1.367

c1ccc(Nc2ccccc2)cc1 + CO
viscosity [mPa·s]
Settings	298.15 K	303.15 K	308.15 K	313.15 K	318.15 K
101 kPa, x1 = 0.03649	0.814	0.739	0.6818	0.6313	0.584
101 kPa, x1 = 0.06942	1.012	0.9262	0.8495	0.7809	0.7151
101.33 kPa, x1 = 0.04	0.814	0.739	0.6818	0.6313	0.584
101.33 kPa, x1 = 0.0694	1.012	0.9262	0.8495	0.7809	0.7151

CCCCCCCCN + C1CCCCC1
303.15 K, 101 kPa
Settings	viscosity [mPa·s]
x2 = 0.0971	1.138
x2 = 0.1959	1.096
x2 = 0.2997	1.036
x2 = 0.401	0.97
x2 = 0.497	0.952
x2 = 0.5993	0.913
x2 = 0.6975	0.863
x2 = 0.7993	0.82
x2 = 0.896	0.81

[Cl-].[Cl-].[Cl-].[Cl-].[Ge+4] + CSC
293.15 K, 101 kPa
Settings	viscosity [mPa·s]
x2 = 0.203	0.526
x2 = 0.3575	0.483
x2 = 0.4983	0.433
x2 = 0.6857	0.379
x2 = 0.8554	0.328

CC(C)CCCC(C)CCCC(C)CCCC(C)C (stereo not drawn) + Cc1ccccc1
viscosity [mPa·s], 100 kPa
Settings	298.15 K	313.15 K
x2 = 0.4932	2.255	1.658
x2 = 0.7449	1.263	0.974

OCCOCCO + C[N+](C)(C)CCO.[Cl-]
viscosity [mPa·s], 101 kPa
Settings	293.15 K	298.15 K	303.15 K	313.15 K	323.15 K
x1 = 0.667	52.49	–	50.39	35.69	25.79
x2 = 0.25	–	55.1	–	–	–

Cc1ccc(C)cc1 + CO
viscosity [mPa·s], 101 kPa
Settings	x1 = 0.0352	x1 = 0.0758	x1 = 0.1233	x1 = 0.1795	x1 = 0.247	x1 = 0.3298	x1 = 0.4336	x1 = 0.5673	x1 = 0.747
293.15 K	0.6087	0.6353	0.6635	0.6929	0.7227	0.7509	0.7731	0.7803	0.7526
298.15 K	0.5596	0.5732	0.5877	0.6031	0.6191	0.6348	0.6483	0.656	0.6489
308.15 K	0.4893	0.4993	0.5103	0.522	0.5342	0.5465	0.558	0.5669	0.5649
318.15 K	0.4296	0.4369	0.4449	0.4536	0.4628	0.4725	0.4823	0.4899	0.4933

Cc1ccc(C)cc1 + CCC(C)O
308.15 K, 101 kPa
Settings	viscosity [mPa·s]
x2 = 0.0429	0.553
x2 = 0.1028	0.562
x2 = 0.2013	0.591
x2 = 0.3192	0.645
x2 = 0.4044	0.721
x2 = 0.5085	0.792
x2 = 0.6631	0.932
x2 = 0.7494	1.111
x2 = 0.8285	1.32
x2 = 0.9012	1.61
x2 = 0.9684	1.782
